# Results reported in patent publication US12157746B2, “Tetrahydro-1H-pyrazino[2,1-a]isoindolylquinoline compounds for the treatment of autoimmune disease” (F. HOFFMANN-LA ROCHE AG, priority 2018, dated 2024).
# Target: T1, human TLR8 (Homo sapiens, UniProt Q9NR97)
# T1 sequence (Q9NR97 27-1041): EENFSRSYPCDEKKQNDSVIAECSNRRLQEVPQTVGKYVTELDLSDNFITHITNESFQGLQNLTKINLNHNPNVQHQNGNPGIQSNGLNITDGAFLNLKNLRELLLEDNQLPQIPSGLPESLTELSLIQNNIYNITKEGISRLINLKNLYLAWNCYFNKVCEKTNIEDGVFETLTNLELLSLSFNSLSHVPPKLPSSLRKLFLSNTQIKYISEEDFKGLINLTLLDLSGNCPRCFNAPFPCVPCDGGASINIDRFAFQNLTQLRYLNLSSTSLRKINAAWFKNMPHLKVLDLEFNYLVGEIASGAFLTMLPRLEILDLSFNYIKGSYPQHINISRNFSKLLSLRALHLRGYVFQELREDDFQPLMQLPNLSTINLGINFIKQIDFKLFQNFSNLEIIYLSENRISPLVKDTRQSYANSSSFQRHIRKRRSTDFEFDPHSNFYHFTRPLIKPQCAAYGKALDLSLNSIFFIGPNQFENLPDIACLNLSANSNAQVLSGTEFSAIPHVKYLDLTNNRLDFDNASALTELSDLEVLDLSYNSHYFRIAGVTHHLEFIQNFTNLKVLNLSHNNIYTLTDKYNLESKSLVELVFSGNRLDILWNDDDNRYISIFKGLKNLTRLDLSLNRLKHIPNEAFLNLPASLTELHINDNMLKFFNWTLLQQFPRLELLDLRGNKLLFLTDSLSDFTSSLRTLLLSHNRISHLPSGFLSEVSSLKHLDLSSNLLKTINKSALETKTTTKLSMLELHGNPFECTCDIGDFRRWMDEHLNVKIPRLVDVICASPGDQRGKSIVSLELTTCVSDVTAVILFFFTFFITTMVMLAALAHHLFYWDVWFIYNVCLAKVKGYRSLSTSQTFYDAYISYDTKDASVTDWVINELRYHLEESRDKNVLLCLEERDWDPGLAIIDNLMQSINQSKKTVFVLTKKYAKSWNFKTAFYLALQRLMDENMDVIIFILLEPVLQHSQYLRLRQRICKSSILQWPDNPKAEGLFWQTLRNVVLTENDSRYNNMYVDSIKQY
# Experiment: HEK293-Blue-hTLR-8 cells assay
# Assay type: cell-based
# Conditions: HEK293-Blue-hTLR8 cells, R848 stimulation, 20 hrs, SEAP reporter; read-out: HEK/hTLR8 IC50
# From the text: HEK293-Blue-hTLR-8 Cells Assay:
# A stable HEK293-Blue-hTLR-8 cell line was purchased from InvivoGen (Cat. #: hkb-htlr8, San Diego, California, USA). These cells were originally designed for studying the stimulation of human TLR8 by monitoring the activation of NF-κB. A SEAP (secreted embryonic alkaline phosphatase) reporter gene was placed under the control of the IFN-β minimal promoter fused to five NF-κB and AP-1-binding sites. The SEAP was induced by activating NF-κB and AP-1 via stimulating HEK-Blue hTLR8 cells with TLR8 ligands. Therefore the reporter expression was declined by TLR8 antagonist under the stimulation of a ligand, such as R848, for incubation of 20 hrs. The cell culture supernatant SEAP reporter activity was determined using QUANTI-Blue™kit (Cat. #: rep-qb1, Invivogen, San Diego, Ca, USA) at a wavelength of 640 nm, a detection medium that turns purple or blue in the presence of alkaline phosphatase.
# HEK293-Blue-hTLR8 cells were incubated at a density of 250,000-450,000 cells/mL in a volume of 170 μL in a 96-well plate in Dulbecco's Modified Eagle's medium (DMEM) containing 4.5 g/L glucose, 50 U/mL penicillin, […], […], 2 mM L-glutamine, 10% (v/v) heat-inactivated fetal bovine serum with addition of 20 μL test compound 1n a serial dilution in the presence of final DMSO at 1% and 10 μL of 60 uM R848 in above DMEM, perform incubation under 37° C. in a CO2 incubator for 20 hrs. Then 20 μL of the supernatant from each well was incubated with 180 μL Quanti-blue substrate solution at 37° C. for 2 hrs and the absorbance was read at 620-655 nm using a spectrophotometer. The signaling pathway that TLR8 activation leads to downstream NF-κB activation has been widely accepted, and therefore similar reporter assay was modified for evaluating TLR8 antagonist.
row,Structure (SMILES),IC50 [nM]
1,"C[C@@H]1CN(c2ccc(C#N)c3ncccc23)C[C@@H]2c3ccc(N4C[C@@H](N)[C@H](F)C4)cc3CN12 [Example 48, 5-[(4R,10bS)-8-[(3R,4R)-3-amino-4-fluoro-pyrrolidin-1-yl]-4-methyl-3,4,6,10b-tetrahydro-1H-pyrazino[2,1-a]isoindol-2-yl]quinoline-8-carbonitrile]",0.7
2,"C[C@@H]1CN(c2ccc(C#N)c3ncccc23)C[C@@H]2c3cccc(N4CCNCC4)c3CN12 [Example 8, 5-[(4R,10bS)-4-methyl-7-piperazin-1-yl-3,4,6,10b-tetrahydro-1H-pyrazino[2,1-a]isoindol-2-yl]quinoline-8-carbonitrile]",< 3.2
3,"C[C@@H]1CN(c2ccc(C#N)c3ncccc23)C[C@@H]2c3ccc(N4CCOC5(CNC5)C4)cc3CN12 [Example 24, 5-[(4R,10bS)-4-methyl-8-(5-oxa-2,8-diazaspiro[3.5]nonan-8-yl)-3,4,6,10b-tetrahydro-1H-pyrazino[2,1-a]isoindol-2-yl]quinoline-8-carbonitrile]",< 3.2
4,"C[C@@H]1CN(c2ccc(C#N)c3ncccc23)C[C@@H]2c3ccc(N4C[C@@H](F)[C@@H](N)C4)cc3CN12 [Example 46, 5-[(4R,10bS)-8-[(3S,4R)-3-amino-4-fluoro-pyrrolidin-1-yl]-4-methyl-3,4,6,10b-tetrahydro-1H-pyrazino[2,1-a]isoindol-2-yl]quinoline-8-carbonitrile]",0.4
5,"CN[C@H]1CN(c2ccc3c(c2)CN2[C@H](C)CN(c4ccc(C#N)c5ncccc45)C[C@H]32)C[C@@H]1O [Example 42, 5-[(4R,10bS)-8-[(3S,4S)-3-hydroxy-4-(methylamino)pyrrolidin-1-yl]-4-methyl-3,4,6,10b-tetrahydro-1H-pyrazino[2,1-a]isoindol-2-yl]quinoline-8-carbonitrile]",< 3.2
6,"C[C@@H]1CN(c2ccc(C#N)c3ncccc23)C[C@@H]2c3ccc(N4CCNCC(C)(O)C4)cc3CN12 (stereo partly drawn) [Example 55, 5-[(4R,10S)-8-(6-hydroxy-6-methyl-1,4-diazepan-1-yl)-4-methyl-3,4,6,10b-tetrahydro-1H-pyrazino[2,1-a]isoindol-2-yl]quinoline-8-carbonitrile]",< 3.2
7,"C[C@@H]1CN(c2ccc(C#N)c3ncccc23)C[C@@H]2c3ccc(N4C[C@@H](N)[C@](C)(O)C4)cc3CN12 [Example 45, 5-[(4R,10bS)-4-methyl-8-[trans-(3R,4R)-4-amino-3-hydroxy-3-methyl-pyrrolidin-1-yl]-3,4,6,10b-tetrahydro-1H-pyrazino[2,1-a]isoindol-2-yl]quinoline-8-carbonitrile]",< 3.2
8,"C[C@@H]1CN(c2ccc(C#N)c3ncccc23)C[C@@H]2c3ccc(N4C[C@@H](N)[C@@H](F)C4)cc3CN12 [Example 47, 5-[(4R,10bS)-8-[(3R,4S)-3-amino-4-fluoro-pyrrolidin-1-yl]-4-methyl-3,4,6,10b-tetrahydro-1H-pyrazino[2,1-a]isoindol-2-yl]quinoline-8-carbonitrile]",0.6
9,"COC1CN(c2ccc3c(c2)CN2C3CN(c3ccc(C#N)c4ncccc34)C[C@H]2C)CC1N (single isomer, unassigned) [Example 16B]",< 3.2
10,"C[C@@H]1CN(c2ccc(C#N)n3nccc23)C[C@@H]2c3ccc(N4CC[C@@](C)(N)C4)cc3CN12 [Example 103, 4-[(4R,10bS)-8-[(3R)-3-amino-3-methyl-pyrrolidin-1-yl]-4-methyl-3,4,6,10b-tetrahydro-1H-pyrazino[2,1-a]isoindol-2-yl]pyrazolo[1,5-a]pyridine-7-carbonitrile]",4.8
11,"C[C@@H]1CN(c2ccc(C#N)c3ncccc23)C[C@@H]2c3ccc(N4C[C@@H](N)[C@H](O)C4)cc3CN12 (single isomer, unassigned) [Example 40B]",0.9
12,"C[C@@H]1CN(c2ccc(C#N)c3ncccc23)C[C@@H]2c3ccc(N4CCN[C@H](CO)C4)cc3CN12 [Example 12, 5-[(4R,10bS)-8-[(3S)-3-(hydroxymethyl)piperazin-1-yl]-4-methyl-3,4,6,10b-tetrahydro-1H-pyrazino[2,1-a]isoindol-2-yl]quinoline-8-carbonitrile]",< 3.2
13,"C[C@@H]1CN(c2ccc(C#N)c3ncccc23)C[C@@H]2c3ccc(N4CC[C@@H](N)C4)cc3CN12 [Example 20, 5-[(4R,10bS)-8-[(3R)-3-aminopyrrolidin-1-yl]-4-methyl-3,4,6,10b-tetrahydro-1H-pyrazino[2,1-a]isoindol-2-yl]quinoline-8-carbonitrile]",< 3.2
14,"[2H]c1ccc2c(N3C[C@@H](C)N4Cc5cc(N6CC7CNCC(C6)O7)ccc5[C@H]4C3)ccc(C#N)c2n1 [Example 93, 5-[(4R,10bS)-4-methyl-8-(9-oxa-3,7-diazabicyclo[3.3.1]nonan-3-yl)-3,4,6,10b-tetrahydro-1H-pyrazino[2,1-a]isoindol-2-yl]-2-deuterio-quinoline-8-carbonitrile]",2.1
15,"C[C@@H]1CN(c2ccc(C#N)c3ncccc23)C[C@@H]2c3ccc(N[C@H]4CNC[C@H]4F)cc3CN12 [Example 30, 5-[(4R,10bS)-8-[[(3S,4R)-4-fluoropyrrolidin-3-yl]amino]-4-methyl-3,4,6,10b-tetrahydro-1H-pyrazino[2,1-a]isoindol-2-yl]quinoline-8-carbonitrile]",< 3.2
16,"C[C@@H]1CN(c2ccc(C#N)c3ncccc23)C[C@@H]2c3ccc(C4CNC4)cc3CN12 [Example 29, 5-[(4R,10bS)-8-(azetidin-3-yl)-4-methyl-3,4,6,10b-tetrahydro-1H-pyrazino[2,1-a]isoindol-2-yl]quinoline-8-carbonitrile]",< 3.2
17,"[2H]c1ccc2c(N3C[C@@H](C)N4Cc5cc(N[C@H]6CNC[C@H]6F)ccc5[C@H]4C3)ccc(C#N)c2n1 [Example 91, 5-[(4R,10bS)-8-[[(3S,4R)-4-fluoropyrrolidin-3-yl]amino]-4-methyl-3,4,6,10b-tetrahydro-1H-pyrazino[2,1-a]isoindol-2-yl]-2-deuterio-quinoline-8-carbonitrile]",0.6
18,"CO[C@@H]1CN(c2ccc3c(c2)CN2[C@H](C)CN(c4ccc(C#N)n5nccc45)C[C@H]32)C[C@H]1N [Example 94, 4-[(4R,10bS)-8-[(3R,4R)-3-amino-4-methoxy-pyrrolidin-1-yl]-4-methyl-3,4,6,10b-tetrahydro-1H-pyrazino[2,1-a]isoindol-2-yl]pyrazolo[1,5-a]pyridine-7-carbonitrile]",5.6
19,"C[C@@H]1CN(c2ccc(C#N)c3ncccc23)C[C@@H]2c3ccc(N4CCOC5CNCC54)cc3CN12 (stereo partly drawn) [Example 52, 5-[(4R,10bS)-8-(3,4a,5,6,7,7a-hexahydro-2H-pyrrolo[3,4-b][1,4]oxazin-4-yl)-4-methyl-3,4,6,10b-tetrahydro-1H-pyrazino[2,1-a]isoindol-2-yl]quinoline-8-carbonitrile]",< 3.2
20,"C[C@@H]1CN(c2ccc(C#N)c3ncccc23)C[C@@H]2c3ccc(N4CCNC[C@@H](O)C4)cc3CN12 [Example 53B, 5-[(4R,10bS)-8-[(6R)-6-hydroxy-1,4-diazepan-1-yl]-4-methyl-3,4,6,10b-tetrahydro-1H-pyrazino[2,1-a]isoindol-2-yl]quinoline-8-carbonitrile]",< 3.2
21,"C[C@@H]1CN(c2ccc(C#N)c3ncccc23)C[C@@H]2c3ccc(N4CC5(CNC5)C4)cc3CN12 [Example 36, 5-[(4R,10bS)-8-(2,6-diazaspiro[3.3]heptan-2-yl)-4-methyl-3,4,6,10b-tetrahydro-1H-pyrazino[2,1-a]isoindol-2-yl]quinoline-8-carbonitrile]",< 3.2
